Laboratory results taken from US8076487B2, “Pyridone derivative and herbicide” (Kumiai Chemical Industry Co., Ltd., priority 2006, dated 2011).

Assays:
Assay type in all cases: in vivo
[1] = system: heartshape false pickerelweed (Monochoria vaginalis (Burm.f.) C.Presl); assay: Test Example 1: herbicidal effect by soil application to paddy field; conditions: for herbicidal effect, Monochoria vaginalis (Burm. f.) C. Presl: paddy field soil application, active ingredient 1,000 g per 1 hectare, wettable powder added dropwise to water surface the day after sowing, examined on the 21st day after application; for herbicidal effect (index), Monochoria vaginalis (Burm.f.) C.Presl: soil application to paddy field, rated by standard of Table 34
In short: (§1)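 Plants were sown in flooded (3 cm) paddy soil and evaluated for herbicidal effect 21 days after soil application in a greenhouse.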

[2] = system: Japanese bulrush (Scirpus juncoides Roxb.); assay: as above; conditions: for herbicidal effect, Scirpus juncoides Roxb.: paddy field soil application, active ingredient 1,000 g per 1 hectare, wettable powder added dropwise to water surface the day after sowing, examined on the 21st day after application; for herbicidal effect (index), Scirpus juncoides Roxb.: soil application to paddy field, rated by standard of Table 34
In short: as §1

[3] = system: early watergrass (Echinochloa oryzicola Vasing); assay: as above; conditions: for herbicidal effect, Echinochloa oryzicola Vasing: paddy field soil application, active ingredient 1,000 g per 1 hectare, wettable powder added dropwise to water surface the day after sowing, examined on the 21st day after application; for herbicidal effect (index), Echinochloa oryzicola Vasing: soil application to paddy field, rated by standard of Table 34
In short: as §1

[4] = system: barnyardgrass (Echinochloa crus-galli (L.) P. Beauv. var. crus-galli); assay: Test Example 2: herbicidal effect by soil application to upland field; conditions: soil surface spray, upland field soil, 1,000 g active ingredient per hectare, 21st day after application
Experimental: (§2) [table] Test Example 2 Test on Herbicidal Effect by Soil Application to Upland field In a 80 cm2 plastic pot, field soil was filled. Seeds of barnyardgrass (Echinochloa crus-galli (L.) P. Beauv. var. crus-galli), green foxtail (Setaria viridis (L.) P. Beauv.), velvetleaf (Abutilon theophrasti medicus), and slender amaranth (Amaranthus viridis L.) were sown and covered with soils. The wettable powder prepared according to Formulation Example 1 was diluted in water and a 1,000 liter equivalent amount per 1 hectare so that the active ingredient becomes 1,000 g per 1 hectare was uniformly sprayed on a soil surface using a small sprayer. Then, on the 21st day after the application to the plants grew in a greenhouse, the herbicidal effect was examined in accordance with a standard shown in Table 34.

[5] = system: green foxtail (Setaria viridis (L.) P. Beauv.); assay: as above; conditions: soil surface spray, upland field soil, 1,000 g active ingredient per hectare, 21st day after application
Experimental: as §2

[6] = system: velvetleaf (Abutilon theophrasti medicus); assay: as above; conditions: soil surface spray, upland field soil, 1,000 g active ingredient per hectare, 21st day after application
Experimental: as §2

[7] = system: slender amaranth (Amaranthus viridis L.); assay: as above; conditions: soil surface spray, upland field soil, 1,000 g active ingredient per hectare, 21st day after application
Experimental: as §2

| SMILES | herbicidal effect, Monochoria vaginalis (Burm. f.) C. Presl [1] | herbicidal effect, Scirpus juncoides Roxb. [2] | herbicidal effect, Echinochloa oryzicola Vasing [3] | herbicidal effect (index), Barnyardgrass [4] | herbicidal effect (index), Green Foxtail [5] | herbicidal effect (index), Velvetleaf [6] | herbicidal effect (index), Slender Amaranth [7] | herbicidal effect (index), Monochoria vaginalis (Burm.f.) C.Presl [1] | herbicidal effect (index), Scirpus juncoides Roxb. [2] | herbicidal effect (index), Echinochloa oryzicola Vasing [3] |
| --- | --- | --- | --- | --- | --- | --- | --- | --- | --- | --- |
| CCCS(=O)(=O)Oc1c(C(=O)c2ccc(C(F)(F)F)n(-c3ccc(F)c(F)c3)c2=O)c(C)nn1C [IV-88] | 5 (90% or more of herbicidal effect and crop phytotoxicity) | 4 (70 to less than 90% of herbicidal effect and crop phytotoxicity) | 5 (90% or more of herbicidal effect and crop phytotoxicity) | 5 (90% or more of herbicidal effect and crop phytotoxicity) | 5 (90% or more of herbicidal effect and crop phytotoxicity) | 5 (90% or more of herbicidal effect and crop phytotoxicity) | 5 (90% or more of herbicidal effect and crop phytotoxicity) | – | – | – |
| CC(=O)Oc1c(C(=O)c2ccc(C(F)(F)F)n(-c3cc([N+](=O)[O-])ccc3F)c2=O)cnn1C [IV-89] | 5 (90% or more of herbicidal effect and crop phytotoxicity) | 4 (70 to less than 90% of herbicidal effect and crop phytotoxicity) | 4 (70 to less than 90% of herbicidal effect and crop phytotoxicity) | 5 (90% or more of herbicidal effect and crop phytotoxicity) | 4 (70 to less than 90% of herbicidal effect and crop phytotoxicity) | 5 (90% or more of herbicidal effect and crop phytotoxicity) | 4 (70 to less than 90% of herbicidal effect and crop phytotoxicity) | – | – | – |
| CCCS(=O)(=O)Oc1c(C(=O)c2ccc(C(F)(F)F)n(-c3ccc(F)c(COC)c3)c2=O)cnn1C [IV-94] | 5 (90% or more of herbicidal effect and crop phytotoxicity) | 5 (90% or more of herbicidal effect and crop phytotoxicity) | 5 (90% or more of herbicidal effect and crop phytotoxicity) | 5 (90% or more of herbicidal effect and crop phytotoxicity) | 4 (70 to less than 90% of herbicidal effect and crop phytotoxicity) | 5 (90% or more of herbicidal effect and crop phytotoxicity) | 5 (90% or more of herbicidal effect and crop phytotoxicity) | – | – | – |
| Cn1ncc(C(=O)c2ccc(C(F)(F)F)n(CC3CCCO3)c2=O)c1OC(=O)c1ccccc1 (centres unmarked) [IV-131] | 5 (90% or more of herbicidal effect and crop phytotoxicity) | 5 (90% or more of herbicidal effect and crop phytotoxicity) | 5 (90% or more of herbicidal effect and crop phytotoxicity) | 4 (70 to less than 90% of herbicidal effect and crop phytotoxicity) | 3 (50 to less than 70% of herbicidal effect and crop phytotoxicity) | 4 (70 to less than 90% of herbicidal effect and crop phytotoxicity) | 5 (90% or more of herbicidal effect and crop phytotoxicity) | – | – | – |
| Cn1ncc(C(=O)c2ccc(C(F)(F)F)n(CC3CCCO3)c2=O)c1OC(=O)c1c(Cl)cc(Cl)cc1Cl (centres unmarked) [IV-133] | 5 (90% or more of herbicidal effect and crop phytotoxicity) | 5 (90% or more of herbicidal effect and crop phytotoxicity) | 5 (90% or more of herbicidal effect and crop phytotoxicity) | 5 (90% or more of herbicidal effect and crop phytotoxicity) | 3 (50 to less than 70% of herbicidal effect and crop phytotoxicity) | 4 (70 to less than 90% of herbicidal effect and crop phytotoxicity) | 5 (90% or more of herbicidal effect and crop phytotoxicity) | – | – | – |
| C#CCOc1c(C(=O)c2ccc(C(F)(F)F)n(C)c2=O)cnn1C [IV-189] | 5 (90% or more of herbicidal effect and crop phytotoxicity) | 5 (90% or more of herbicidal effect and crop phytotoxicity) | 5 (90% or more of herbicidal effect and crop phytotoxicity) | 5 (90% or more of herbicidal effect and crop phytotoxicity) | 4 (70 to less than 90% of herbicidal effect and crop phytotoxicity) | 4 (70 to less than 90% of herbicidal effect and crop phytotoxicity) | 5 (90% or more of herbicidal effect and crop phytotoxicity) | – | – | – |
| CCCS(=O)(=O)Oc1c(C(=O)c2ccc(C(F)(F)F)n(CC3CCCO3)c2=O)cnn1CC (centres unmarked) [IV-207] | 5 (90% or more of herbicidal effect and crop phytotoxicity) | 5 (90% or more of herbicidal effect and crop phytotoxicity) | 5 (90% or more of herbicidal effect and crop phytotoxicity) | 5 (90% or more of herbicidal effect and crop phytotoxicity) | 5 (90% or more of herbicidal effect and crop phytotoxicity) | 5 (90% or more of herbicidal effect and crop phytotoxicity) | 5 (90% or more of herbicidal effect and crop phytotoxicity) | – | – | – |
| CCCS(=O)(=O)Oc1c(C(=O)c2ccc(C(F)(F)F)n(-c3ccccc3)c2=O)c(C)nn1C [IV-237] | 5 (90% or more of herbicidal effect and crop phytotoxicity) | 5 (90% or more of herbicidal effect and crop phytotoxicity) | 5 (90% or more of herbicidal effect and crop phytotoxicity) | 4 (70 to less than 90% of herbicidal effect and crop phytotoxicity) | 4 (70 to less than 90% of herbicidal effect and crop phytotoxicity) | 4 (70 to less than 90% of herbicidal effect and crop phytotoxicity) | 5 (90% or more of herbicidal effect and crop phytotoxicity) | – | – | – |
| CCCn1c(C(F)(F)F)c(C)cc(C(=O)c2cnn(C)c2O)c1=O [IV-241] | 5 (90% or more of herbicidal effect and crop phytotoxicity) | 5 (90% or more of herbicidal effect and crop phytotoxicity) | 5 (90% or more of herbicidal effect and crop phytotoxicity) | 4 (70 to less than 90% of herbicidal effect and crop phytotoxicity) | 3 (50 to less than 70% of herbicidal effect and crop phytotoxicity) | 5 (90% or more of herbicidal effect and crop phytotoxicity) | 5 (90% or more of herbicidal effect and crop phytotoxicity) | – | – | – |
| CCCn1c(C(F)(F)F)ccc(C(=O)C(C#N)=C(O)C2CC2)c1=O [V-21] | – | – | – | 5 (90% or more of herbicidal effect and crop phytotoxicity) | 5 (90% or more of herbicidal effect and crop phytotoxicity) | 5 (90% or more of herbicidal effect and crop phytotoxicity) | 5 (90% or more of herbicidal effect and crop phytotoxicity) | 5 (90% or more of herbicidal effect and crop phytotoxicity) | 5 (90% or more of herbicidal effect and crop phytotoxicity) | 5 (90% or more of herbicidal effect and crop phytotoxicity) |
| N#CC(C(=O)c1ccc(C(F)(F)F)n(-c2ccccc2)c1=O)=C(O)C1CC1 [V-23] | – | – | – | 5 (90% or more of herbicidal effect and crop phytotoxicity) | 5 (90% or more of herbicidal effect and crop phytotoxicity) | 5 (90% or more of herbicidal effect and crop phytotoxicity) | 5 (90% or more of herbicidal effect and crop phytotoxicity) | 5 (90% or more of herbicidal effect and crop phytotoxicity) | 5 (90% or more of herbicidal effect and crop phytotoxicity) | 5 (90% or more of herbicidal effect and crop phytotoxicity) |
